target: T1, Full length (FL) 3-Phosphoglycerate Dehydrogenase (PHGDH) (Homo sapiens, UniProt O43175); experiment: Full length (FL) PHGDH Diaphorase coupled assay (500 uM NAD); type: biochemical; settings: full-length PHGDH 5 nM, 30° C. 60 minutes, resorufin fluorescence
T1 construct: Full length (FL) 3-Phosphoglycerate Dehydrogenase (PHGDH) Diaphorase coupled assay (500 uM NAD)
T1 sequence (O43175 1-533): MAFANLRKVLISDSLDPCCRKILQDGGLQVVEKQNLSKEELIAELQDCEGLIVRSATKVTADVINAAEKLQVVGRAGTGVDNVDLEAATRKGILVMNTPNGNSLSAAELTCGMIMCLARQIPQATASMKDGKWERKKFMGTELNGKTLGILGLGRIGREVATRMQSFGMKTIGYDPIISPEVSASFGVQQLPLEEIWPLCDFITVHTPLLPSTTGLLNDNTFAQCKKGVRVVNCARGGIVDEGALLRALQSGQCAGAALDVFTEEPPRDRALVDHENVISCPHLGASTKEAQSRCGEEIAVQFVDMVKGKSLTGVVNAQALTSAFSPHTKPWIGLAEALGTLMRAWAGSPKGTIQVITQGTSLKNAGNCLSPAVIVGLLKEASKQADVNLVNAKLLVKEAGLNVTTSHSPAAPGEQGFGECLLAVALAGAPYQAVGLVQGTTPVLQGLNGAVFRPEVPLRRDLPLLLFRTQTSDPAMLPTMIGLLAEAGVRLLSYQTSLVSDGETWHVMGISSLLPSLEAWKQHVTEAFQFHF
Procedure: Full length (FL) 3-Phosphoglycerate Dehydrogenase (PHGDH) Diaphorase coupled assay (500 uM NAD)
PHGDH activity was determined by detecting the NADH produced during the reaction. Diaphorase was used to catalyze the oxidation of NADH with the concomitant reduction of resazurin to the fluorescent product resorufin. Resorufin fluorescence quantitatively reflected the production of NADH by the PHGDH reaction. To drive the forward reaction, two enzymes in the serine synthesis pathway subsequent to PHGDH, Phosphoserine aminotransferase (PSAT1) and phosphoserine phosphatase (PSPH) were also added to the reaction.
Briefly, serial dilution of compounds were incubated in a volume of 20 μL in 384 well plates with the assay mixture containing 5 nM PHGDH, 500 nM PSAT1, 500 nM PSPH, 500 μM NAD^+, 80 uM 3-phosphoglycerate, 1 mM glutamate, 57 uM Resazurin and 0.2 mg/ml Diaphorase in assay buffer containing 50 mM Trisethanoloamine (TEA) pH8.0, 10 mM MgCl2, 0.01% Tween-20 and 0.05% Bovine Serum Albumin (BSA). The plate was then incubated at 30° C. for 60 minutes and resorufin fluorescence was measured at emission wavelength 598 nm following excitation at 525 nm. The positive control consisted of the complete reaction mixture with 4% DMSO and was set to 0% inhibition.

`Cn1c(C(=O)NC2(c3ccc(C4(C(=O)O)CCOC4)cc3)COC2)cc2c(Cl)c(Cl)ccc21` (racemic) [I-2 e125] and `Cn1c(C(=O)NC2(c3ccc(C4(C(=O)O)CC4)cc3)CCOC2)cc2c(Cl)c(Cl)ccc21` (racemic) [I-59 e38] fall in the same range of IC50: 1 to 1000 nM for the first, 1 to 1000 nM for the second.

`Cn1c(C(=O)NC2(c3ccc(C(CC4CC4)C(=O)O)cc3)COC2)cc2c(Cl)c(Cl)ccc21` (racemic) [I-3 e124] and `CCC(C(=O)O)c1ccc(C2(NC(=O)c3cc4c(Cl)c(Cl)ccc4n3C)COC2)cc1` (racemic) [I-42 e133] fall in the same range of IC50: 1 to 1000 nM for the first, 1 to 1000 nM for the second.

`COc1cc2c(cc(C(=O)NC3(c4ccc(C(CC5CC5)C(=O)O)cc4)COC3)n2C)c(Cl)c1Cl` (racemic) [I-4 e123] and `CCC(C(=O)O)c1ccc(C2(NC(=O)c3cc4c(Cl)c(Cl)c(OC)cc4n3C)COC2)cc1` (racemic) [I-14 e113] fall in the same range of IC50: 1 to 1000 nM for the first, 1 to 1000 nM for the second.

`COc1cc2c(cc(C(=O)NC3(c4ccc(C(C(=O)O)C5CCC5)cc4)COC3)n2C)c(Cl)c1Cl` (racemic) [I-7 e117] and `COc1cc2c(cc(C(=O)NC3(c4ccc(C(C(=O)O)C5CCCC5)cc4)COC3)n2C)c(Cl)c1Cl` (racemic) [I-22 e118] fall in the same range of IC50: 1 to 1000 nM for the first, 1 to 1000 nM for the second.

`Cn1c(C(=O)NC2(c3ccc(C(C(=O)O)C4CCC4)cc3)COC2)cc2c(Cl)c(Cl)ccc21` (racemic) [I-8 e116] and `Cn1c(C(=O)NC2(c3ccc(C(C(=O)O)C4CCCC4)cc3)COC2)cc2c(Cl)c(Cl)ccc21` (racemic) [I-25 e136, (±)-2-Cyclopentyl-2-[4-[3-[(4,5-dichloro-1-methyl-indole-2-carbonyl)amino]oxetan-3-yl]phenyl]acetic acid] fall in the same range of IC50: 1 to 1000 nM for the first, 1 to 1000 nM for the second.

`CC(C)CC(C(=O)O)c1ccc(C2(NC(=O)c3cc4c(Cl)c(Cl)ccc4n3C)COC2)cc1` (racemic) [I-9 e137, (±)-2-(4-(3-(4,5-Dichloro-1-methyl-1H-indole-2-carboxamido)oxetan-3-yl)phenyl)-4-methylpentanoic acid] and `CC(C)C(C(=O)O)c1ccc(C2(NC(=O)c3cc4c(Cl)c(Cl)ccc4n3C)COC2)cc1` (racemic) [I-30 e134] fall in the same range of IC50: 1 to 1000 nM for the first, 1 to 1000 nM for the second.

`Cn1c(C(=O)NC2(c3ccc(C(C(=O)O)C4CCC4)cc3)CCOC2)cc2c(Cl)c(Cl)ccc21` (racemic) [I-12 e86] and `Cn1c(C(=O)NC2(c3ccc(C(C(=O)O)C4CC4)cc3)CCOC2)cc2c(Cl)c(Cl)ccc21` (racemic) [I-15 e162, (±)-2-Cyclopropyl-2-(4-(3-(4,5-dichloro-1-methyl-1H-indole-2-carboxamido)tetrahydrofuran-3-yl)phenyl)acetic acid] fall in the same range of IC50: 1 to 1000 nM for the first, 1 to 1000 nM for the second.

`COc1ccc2c(cc(C(=O)NC3(c4ccc(C(C(=O)O)C5CCC5)cc4)COC3)n2C)c1Cl` (racemic) [I-13 e111] and `COc1ccc2c(cc(C(=O)NC3(c4ccc(C(C(=O)O)C5CCCC5)cc4)COC3)n2C)c1Cl` (racemic) [I-26 e130] fall in the same range of IC50: 1 to 1000 nM for the first, 1 to 1000 nM for the second.

`Cn1c(C(=O)NC2(c3ccc(C(C(=O)O)C4CCCC4)cc3)CCOC2)cc2c(Cl)c(Cl)ccc21` (racemic) [I-16 e87] and `CC(C)C(C(=O)O)c1ccc(C2(NC(=O)c3cc4c(Cl)c(Cl)ccc4n3C)CCOC2)cc1` (racemic) [I-19 e94] fall in the same range of IC50: 1 to 1000 nM for the first, 1 to 1000 nM for the second.

`CCCC(C(=O)O)c1ccc(C2(NC(=O)c3cc4c(Cl)c(Cl)c(OC)cc4n3C)CCOC2)cc1` (racemic) [I-17 e85] and `CCC(C(=O)O)c1ccc(C2(NC(=O)c3cc4c(Cl)c(Cl)c(OC)cc4n3C)CCOC2)cc1` (racemic) [I-23 e82] fall in the same range of IC50: 1 to 1000 nM for the first, 1 to 1000 nM for the second.

`CCCC(C(=O)O)c1ccc(C2(NC(=O)c3cc4c(Cl)c(Cl)ccc4n3C)CCOC2)cc1` (racemic) [I-18 e84] and `CCC(C(=O)O)c1ccc(C2(NC(=O)c3cc4c(Cl)c(Cl)ccc4n3C)CCOC2)cc1` (racemic) [I-72 e56] fall in the same range of IC50: 1 to 1000 nM for the first, 1 to 1000 nM for the second.

`COc1cc2c(cc(C(=O)NC3(c4ccc(C(C(=O)O)C(C)C)cc4)CCOC3)n2C)c(Cl)c1Cl` (racemic) [I-20 e83] and `COc1cc2c(cc(C(=O)NC3(c4ccc(C(C(=O)O)C(C)C)cc4)COC3)n2C)c(Cl)c1Cl` (racemic) [I-29 e135, (±)-2-[4-[3-[(4,5-Dichloro-6-methoxy-1-methyl-indole-2-carbonyl)amino]oxetan-3-yl]phenyl]-3-methyl-butanoic acid] fall in the same range of IC50: 1 to 1000 nM for the first, 1 to 1000 nM for the second.

`COc1ccc2c(cc(C(=O)NC3(c4ccc(C(C(=O)O)C(C)C)cc4)COC3)n2C)c1Cl` (racemic) [I-21 e127] and `COc1ccc2c(cc(C(=O)NC3(c4ccc(C(C)C(=O)O)cc4)COC3)n2C)c1Cl` (racemic) [I-67 e59] fall in the same range of IC50: 1 to 1000 nM for the first, 1 to 1000 nM for the second.

`CCCC(C(=O)O)c1ccc(C2(NC(=O)c3cc4c(Cl)c(Cl)ccc4n3C)COC2)cc1` (racemic) [I-24 e114] and `CCCC(C(=O)O)c1ccc(C2(NC(=O)c3cc4c(Cl)c(OC)ccc4n3C)COC2)cc1` (racemic) [I-31 e112] fall in the same range of IC50: 1 to 1000 nM for the first, 1 to 1000 nM for the second.

`CCCC(C(=O)O)c1ccc(C2(NC(=O)c3cc4c(Cl)c(Cl)c(OC)cc4n3C)COC2)cc1` (racemic) [I-38 e115] and `CCC(C(=O)O)c1ccc(C2(NC(=O)c3cc4c(Cl)c(OC)ccc4n3C)COC2)cc1` (racemic) [I-43 e126] fall in the same range of IC50: 1 to 1000 nM for the first, 1 to 1000 nM for the second.

`COc1ccc2c(cc(C(=O)NC3(c4ccc(C(C)(C)C(=O)O)cc4F)CCOC3)n2C)c1Cl` (racemic) [I-39 e81] and `Cn1c(C(=O)NC2(c3ccc(C(C)(C)C(=O)O)cc3F)CCOC2)cc2c(Cl)c(Cl)ccc21` (racemic) [I-54 e79] fall in the same range of IC50: 1 to 1000 nM for the first, 1 to 1000 nM for the second.

`COc1ccc2c(cc(C(=O)NC3(c4ccc(C(C)C(=O)O)cc4F)CCOC3)n2C)c1Cl` (racemic) [I-40 e55] and `COc1ccc2c(cc(C(=O)NC3(c4ccc(C(C)C(=O)O)cc4F)COC3)n2C)c1Cl` (racemic) [I-49 e60] fall in the same range of IC50: 1 to 1000 nM for the first, 1 to 1000 nM for the second.

`CC(c1ccc(C2(NC(=O)c3cc4c(Cl)c(Cl)ccc4n3C)CCOC2)cc1)c1nnn[nH]1` (racemic) [I-52 e91] and `CC(C(=O)O)c1ccc(C2(NC(=O)c3cc4c(Cl)c(Cl)ccc4n3C)COC2)cc1` (racemic) [I-68 e58] fall in the same range of IC50: 1 to 1000 nM for the first, 1 to 1000 nM for the second.

`COc1cc2c(cc(C(=O)NC3(c4ccc(C(C)(C)C(=O)O)cc4F)CCOC3)n2C)c(Cl)c1Cl` (racemic) [I-53 e80] and `COc1cc2c(cc(C(=O)NC3(c4ccc(C(C)C(=O)O)cc4F)CCOC3)n2C)c(Cl)c1Cl` (racemic) [I-55 e54] fall in the same range of IC50: 1 to 1000 nM for the first, 1 to 1000 nM for the second.

First: CC(C(=O)O)c1ccc(C2(NC(=O)c3cc4c(Cl)c(Cl)ccc4n3C)CCOC2)c(F)c1 (racemic) [I-57 e53]
Second: Cn1c(C(=O)NC2(c3ccc(CC(=O)O)cc3C#N)CCOC2)cc2c(Cl)c(Cl)ccc21 (racemic) [I-71 e158, (±)-2-[3-Cyano-4-[3-[(4,5-dichloro-1-methyl-indole-2-carbonyl)amino]tetrahydro-furan-3-yl]phenyl]acetic acid]
The IC50 of the first is lower: 1 to 1000 nM for the first, 1000 to 5000 nM for the second. The first is the more potent here.

`COc1ccc2c(cc(C(=O)NC3(c4ccc(C5(C(=O)O)CC5)cc4)CCOC3)n2C)c1Cl` (racemic) [I-58 e70] and `COc1ccc2c(cc(C(=O)NC3(c4ccc(C(C)C(=O)O)cc4)CCOC3)n2C)c1Cl` (racemic) [I-64 e57] fall in the same range of IC50: 1 to 1000 nM for the first, 1 to 1000 nM for the second.

First: Cn1c(C(=O)NC2(c3ccc(C(=O)O)nc3)CCOC2)cc2c(Cl)c(Cl)ccc21 (racemic) [I-73 e28]
Second: Cn1c(C(=O)NC2(c3ccc(C(=O)O)cn3)CCOC2)cc2c(Cl)c(Cl)ccc21 (racemic) [I-74 e27]
The IC50 of the first is higher: 1000 to 5000 nM for the first, 1 to 1000 nM for the second. The second is the more potent here.

Reference: patent publication US11634412B2, “3-phosphoglycerate dehydrogenase inhibitors and uses thereof” (Raze Therapeutics, Inc., priority 2016, dated 2023)
